Experimental data published in ChEMBL document CHEMBL4665713, “Synthesis and biological evaluation of novel quinazoline-triazole hybrid compounds with potential use in Alzheimer's disease” (Bioorg Med Chem Lett, 2020).

What was measured:
Acetylcholinesterase [1] = target: Acetylcholinesterase (Electrophorus electricus, UniProt O42275); assay: Inhibition of electric eel AChE using acetylthiocholine iodide as substrate preincubated with enzyme for 10 mins prior to substrate addition and measured for 6 mins by Ellman's method
Acetylcholinesterase [2] = target: T1, Acetylcholinesterase (Rattus norvegicus, UniProt P37136); assay: Inhibition of AChE in rat brain using acetylthiocholine iodide as substrate by Ellman's UV-vis spectrophotometric method; assay type: tissue-based
T1 sequence (P37136 whole entry): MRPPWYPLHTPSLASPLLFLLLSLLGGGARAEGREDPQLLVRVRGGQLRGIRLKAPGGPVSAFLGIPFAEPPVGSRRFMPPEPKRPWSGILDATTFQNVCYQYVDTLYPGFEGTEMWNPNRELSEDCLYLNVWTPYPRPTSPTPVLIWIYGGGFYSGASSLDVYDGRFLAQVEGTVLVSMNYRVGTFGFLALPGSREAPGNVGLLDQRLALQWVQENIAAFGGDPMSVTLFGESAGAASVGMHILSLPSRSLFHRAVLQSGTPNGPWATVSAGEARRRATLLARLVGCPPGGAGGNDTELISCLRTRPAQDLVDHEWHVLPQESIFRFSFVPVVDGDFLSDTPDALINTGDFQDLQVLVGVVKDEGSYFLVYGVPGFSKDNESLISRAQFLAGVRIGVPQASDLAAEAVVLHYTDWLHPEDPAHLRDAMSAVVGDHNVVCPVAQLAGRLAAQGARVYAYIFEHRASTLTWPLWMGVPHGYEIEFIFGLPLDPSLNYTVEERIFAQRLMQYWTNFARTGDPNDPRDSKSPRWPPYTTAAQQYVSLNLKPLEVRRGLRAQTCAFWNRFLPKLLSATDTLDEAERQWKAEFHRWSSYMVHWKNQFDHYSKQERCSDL

[3] = Cytotoxicity against human Lu1 cells assessed as reduction in cell viability by MTT assay; assay type: functional, cell-based
[4] = Cytotoxicity against human KB-CCL-17 cells assessed as reduction in cell viability by MTT assay; assay type: functional, cell-based
HepG2 = assay: Cytotoxicity against human HepG2 cells assessed as reduction in cell viability by MTT assay; assay type: functional, cell-based

Chain of Acetylcholinesterase (Electrophorus electricus, UniProt O42275) (O42275 whole entry): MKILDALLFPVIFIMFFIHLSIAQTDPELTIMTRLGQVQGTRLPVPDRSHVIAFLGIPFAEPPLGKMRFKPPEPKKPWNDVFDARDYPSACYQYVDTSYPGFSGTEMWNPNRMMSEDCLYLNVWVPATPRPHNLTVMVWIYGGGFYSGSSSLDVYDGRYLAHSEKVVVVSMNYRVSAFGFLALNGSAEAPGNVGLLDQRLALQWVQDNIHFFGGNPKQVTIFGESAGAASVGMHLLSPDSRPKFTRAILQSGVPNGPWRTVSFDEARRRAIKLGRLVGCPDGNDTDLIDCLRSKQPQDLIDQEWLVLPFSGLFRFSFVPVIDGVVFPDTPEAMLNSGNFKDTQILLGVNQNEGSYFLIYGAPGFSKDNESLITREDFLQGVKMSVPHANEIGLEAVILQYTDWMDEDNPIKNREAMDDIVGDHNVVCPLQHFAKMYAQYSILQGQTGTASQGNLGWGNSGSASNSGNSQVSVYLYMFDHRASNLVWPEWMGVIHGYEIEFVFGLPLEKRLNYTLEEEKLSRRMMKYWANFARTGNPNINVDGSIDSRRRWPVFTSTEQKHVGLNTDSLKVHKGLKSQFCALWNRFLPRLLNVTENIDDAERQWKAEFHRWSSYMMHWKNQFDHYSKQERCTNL

| SMILES | IC50 (Acetylcholinesterase [1]) [µM] | IC50 (Acetylcholinesterase [2]) [µM] | IC50 [3] [µM] | IC50 [4] [µM] | IC50 (HepG2) [µM] |
| --- | --- | --- | --- | --- | --- |
| Cc1ccc(Cn2cc(Oc3ccc4cc(C(=O)NC5CCN(Cc6ccccc6)CC5)c(=O)oc4c3)nn2)cc1C | 1.8 | – | – | – | – |
| C#CCOc1ccc2ncnc(NCc3ccccc3)c2c1 | – | 47.7 | > 200 | 59.7 | > 200 |
| C#CCOc1ccc2ncnc(N3CCN(C)CC3)c2c1 | – | 83.9 | > 200 | > 200 | > 200 |
| O=[N+]([O-])c1cccc(-n2cc(COc3ccc4ncnc(NCc5ccccc5)c4c3)nn2)c1 | – | 1.1 | > 200 | > 200 | 94.1 |
| CN1CCN(c2ncnc3ccc(OCc4cn(-c5cccc([N+](=O)[O-])c5)nn4)cc23)CC1 | – | 15.8 | > 200 | > 200 | > 200 |
| CN1CCN(c2ncnc3ccc(OCc4cn(-c5ccccc5[N+](=O)[O-])nn4)cc23)CC1 | – | 37.4 | > 200 | > 200 | 142 |
| O=[N+]([O-])c1ccc(-n2cc(COc3ccc4ncnc(Nc5cccc([N+](=O)[O-])c5)c4c3)nn2)cc1 | – | > 200 | – | – | – |
| C#CCOc1ccc2ncnc(Nc3cccc([N+](=O)[O-])c3)c2c1 | – | > 200 | – | – | – |
| N#Cc1cc(-n2cc(COc3ccc4ncnc(NCc5ccccc5)c4c3)nn2)ccc1C(F)(F)F | – | > 200 | – | – | – |
| O=[N+]([O-])c1ccc(-n2cc(COc3ccc4ncnc(NCc5ccccc5)c4c3)nn2)cc1 | – | > 200 | – | – | – |
| O=[N+]([O-])c1ccccc1-n1cc(COc2ccc3ncnc(NCc4ccccc4)c3c2)nn1 | – | 0.23 | > 200 | 42.7 | > 200 |
| O=[N+]([O-])c1cccc(Nc2ncnc3ccc(OCc4cn(-c5cccc([N+](=O)[O-])c5)nn4)cc23)c1 | – | > 200 | – | – | – |
| N#Cc1cc(-n2cc(COc3ccc4ncnc(Nc5cccc([N+](=O)[O-])c5)c4c3)nn2)ccc1C(F)(F)F | – | > 200 | – | – | – |
| CN1CCN(c2ncnc3ccc(OCc4cn(-c5ccc([N+](=O)[O-])cc5)nn4)cc23)CC1 | – | > 200 | – | – | – |
| CN1CCN(c2ncnc3ccc(OCc4cn(-c5ccc(C(F)(F)F)c(C#N)c5)nn4)cc23)CC1 | – | > 200 | – | – | – |
| O=[N+]([O-])c1cccc(Nc2ncnc3ccc(OCc4cn(-c5ccccc5[N+](=O)[O-])nn4)cc23)c1 | – | 2.06 | > 200 | > 200 | > 200 |
| Cc1c2ccncc2c(C)c2c1[nH]c1ccccc12 [ELLIPTECINE] | – | – | 1.3 | 1.1 | 0.85 |
